# “And” between values parts separate entries of the source, which are not always exact repeats. Equal values may be shown once.
# Legend:
# [1] = system: Mouse neuroblastoma Neuro2A cells; experiment: Promotion activity on the neurite outgrowth (1): proportion of cells with extended neurite; format: cell-based; details: for Proportion of cells with neurite (%) mean value ± standard error: 10 nM
# Experimental: (§1) Mouse neuroblastoma Neuro2A cells (obtained from DAINIPPON PHARMACEUTICAL CO., LTD.) were suspended with a density of 2.5×10^4 cells/mL in DMEM containing 10% FCS and 2 mM of Gln, and were plated on commercially available 24-well tissue culture plates with a quantity of 400 μL/well. After an overnight culture under the conditions where the temperature was 37° C., and the carbon dioxide content of the air was 5%, the media was exchanged to an identical media containing the test compound, and the culture was further continued for 24 hours. Then microscope photographs were taken with a 20× lens. Using the photographs, by counting the total number of cells in the field of view and the number of cells with extended neurite, the proportion of cells with extended neurite is calculated.
# [2] = system: Mouse neuroblastoma Neuro2A cells; experiment: Promotion activity on the neurite outgrowth (2): length of neurite per cell; format: cell-based
# Experimental: as §1
# The cells used and the performed culture method were identical to those in Reference example (1). After being cultured in a media containing the test compound for 24 hours, microscope photographs were taken with a 20× lens. […] Using image processing software, the area covered by the neurites were calculated, and, since the thickness used to mark the neurite was uniform, the analysis was performed considering that the area was proportional to the length, and allowing to compute the length of neurite per cell.
# [3] = system: Bovine cerebral capillary endothelial cells; experiment: Permeability through the blood brain barrier: incorporation into bovine cerebral capillary endothelial cells; format: in vitro ADME; details: test compound 1 μM, 15 minutes, ethanol extraction, HPLC
# Experimental: Bovine cerebral capillary endothelial cells were cultured on a 100 mm diameter plate (coated with collagen I) to obtain confluency. The cells were cultured for 15 minutes in an incorporation media (141 mM NaCl, 4 mM KCl, 2 mM CaCl2, 1 mM […], 10 mM HEPES, 10 mM D-glucose) containing the test compound (1 μM), to incorporate the test compound into the cells. Then, the test compound incorporated into the cells was extracted with ethanol extraction, and quantified by HPLC. The rate of incorporation was calculated with the equation below. amount of test compound in the ethanol-extracted fraction/amount of test compound in the incorporation solution×100(%)
# [4] = system: Wistar male rats, model for Alzheimer's disease by the continuous intracerebroventricular administration of β-amyloid proteins; experiment: Step-through passive avoidance test in rats given β-amyloid protein continuously into the cerebral ventricle; format: in vivo, rat; details: Examples 44-47, β-amyloid protein alone 300 pmol/day, continuous intracerebroventricular by osmotic pump
# Text: A step-through passive avoidance instrument made of two chambers separated by a guillotine door was used as the experimental apparatus. One chamber is an illuminated chamber made of transparent acrylic boards (floor: 15 cm×25 cm, height: 15 cm), the other chamber is a dark chamber made of black acryl boards (same dimensions). In addition, the floor of the dark chamber was equipped with a grid made of 4 mm diameter stainless steel pieces separated by 15 mm spacing. The grid was connected to an apparatus for delivering electric shocks (shock generator scrambler).
# First, the guillotine door was opened for one minute to let a rat freely explore the interior of the apparatus. Then, for acquisition trials, the door was closed and the rat was put into the illuminated chamber. 30 seconds later, the door was opened and immediately after the four legs of the rat were put inside the dark chamber, the door was closed and an electric shock was delivered. The strength of the electric shock was 0.5 mA for 5 seconds. The training was repeated until the rat remained in the illuminated chamber for more than 120 seconds when the rat was placed in the illuminated chamber immediately after the electric shock and the door was opened in a similar way. 24 hours after the acquisition trials, the rat was put into the illuminating chamber for retention trials, 30 seconds after, the guillotine door was opened, and the time taken for the four legs of the rat to enter the dark chamber was measured (step-through latency). The maximum observation time during retention trials was set to 300 seconds.
# (§2) 7 week old Wistar male rats (weight 220 to 250 g) were used (N=5 to 10).
# (§3) β-amyloid protein (1–42) was dissolved in 35% acetonitrile-0.1% trifluoroacetic acid in water, injected in a mini-osmotic pump, which had been set to deliver 300 pmol/day (volume: 230 μL, flow: 0.5 μL/hour), and connected to a dental syringe needle through a polyethylene tube. Animals in control group were connected to a pump to which β-amyloid protein (40–1) orvehicleonly was injected. […]
# [5] = system: Wistar male rats, model for Alzheimer's disease by the continuous intracerebroventricular administration of β-amyloid proteins; experiment: Y-maze test (spontaneous alternation behavior test) in rats given β-amyloid protein continuously into the cerebral ventricle; format: in vivo, rat; details: Examples 48-51, β-amyloid protein alone 300 pmol/day, continuous intracerebroventricular by osmotic pump
# Experimental: A Y-shaped maze made by connecting three arms having a length of 35 cm each, a wall height of 25 cm and a floor width of 10 cm at an angle of 120° with respect to each other. The apparatus was settled on the laboratory floor.
# A rat was placed at the extremity of one of the arms, was allowed to freely explore the maze for 8 minutes, and a record was taken of the order in which the arms were explored by the rat. By calling (A) the “Total arm entries”, and among them, by calling (B) the “Number of spontaneous alternations” which is the number of cases where 3 different arms were selected in sequence, the “Percentage of spontaneous alternations” was calculated with: (B/(A−2))×100.
# as §2
# as §3, with “injected. After anesthetizing the rats with pentobarbital (50 mg/Kg, i.p.), an incision was performed in each of their scalps, and following the brainatlas, holes were drilled in the cranium.” for “injected.”
# [6] = listed as β-amyloid protein (1-42)
# [7] = listed as β-amyloid protein (1–42)
molecule,measurement,setting,value
CCCCC[C@H](O)/C=C/[C@H]1[C@H](O)CC(=O)[C@@H]1CCCCCCC(=O)O [PGE1],Proportion of cells with neurite (%) mean value ± standard error,"[1]; Example 52, 24 hours",26.0 ± 3.0%
same,Proportion of cells with neurite (%) mean value ± standard error,"[1]; Example 54, 24 hours",19.5 ± 1.9%
same,Promotion activity on the neurite outgrowth (value relative to PGE1),"[1]; Example 56, 24 hours, 10 μM",1.00
same,Promotion activity on the neurite outgrowth (value relative to PGE1),"[1]; Example 57, 24 hours, 10 μM",1.00
same,Promotion activity on the neurite outgrowth (value relative to PGE1),"[1]; Example 58, 24 hours, 10 μM",1.00
same,Length of neurite per single cell (pixel/cell) mean value ± standard error,"[2]; Example 53, 24 hours, 1 nM",14.2 ± 1.5 pixel/cell
same,Length of neurite per single cell (pixel/cell) mean value ± standard error,"[2]; Example 55, 24 hours, 100 nM",5.7 ± 1.03 pixel/cell
CCCC[C@](C)(O)C/C=C/[C@@H]1[C@H]2CC(CCCCC(=O)O)=C[C@H]2C[C@H]1O [Test compound B],Promotion activity on the neurite outgrowth (value relative to PGE1),"[1]; Example 56, 24 hours, 10 μM",1.63
same,Promotion activity on the neurite outgrowth (value relative to PGE1),"[1]; Example 57, 24 hours, 0.1 μM (PGE1 at 10 μM)",1.12
same,Rate of incorporation into bovine capillary endothelial cells (mean value of two experiments),[3]; Example 61,below detection limit
same,Rate of incorporation into bovine capillary endothelial cells (mean value of two experiments),[3]; Example 62,below detection limit
Cc1cccc(C[C@@H](O)/C=C/[C@@H]2[C@H]3CC(CCCCCN4CCCC4)=C[C@H]3C[C@H]2O)c1 [Test compound C],Promotion activity on the neurite outgrowth (value relative to PGE1),"[1]; Example 56, 24 hours, 10 μM",1.15
Cc1cccc(C[C@H](O)/C=C/[C@@H]2[C@H]3CC(CCCCCN(C)C)=C[C@H]3C[C@H]2O)c1 [Test compound D],Promotion activity on the neurite outgrowth (value relative to PGE1),"[1]; Example 56, 24 hours, 10 μM",1.31
CCCC[C@](C)(O)C/C=C/[C@@H]1[C@H]2CC(CCCCCN(C)C)=C[C@H]2C[C@H]1O [Test compound E],Promotion activity on the neurite outgrowth (value relative to PGE1),"[1]; Example 56, 24 hours, 10 μM",1.58
β-amyloid protein(1-42): β-amyloid protein (1–42) given continuously into the cerebral ventricle by mini-osmotic pump to lower learning and memory in the rat model,Time taken to move into the dark chamber during retention trials mean value ± standard error,[4],140.2 ± 53.8 (n = 5) seconds and 132.8 ± 58.1 (n = 5) seconds
same,Time taken to move into the dark chamber during retention trials mean value ± standard error,[4]; [6],191.7 ± 49.0 s
same,Time taken to move into the dark chamber during retention trials mean value ± standard error,[4]; [7],a decrease in the ability of learning and memory was observed
same,Occurrence of spontaneous alternation behavior mean value ± standard error,[5]; [6],65.6 ± 3.4% and 66.5 ± 4.7% and 59.1 ± 3.0%
same,Occurrence of spontaneous alternation behavior mean value ± standard error,[5]; [7],a decrease in the ability of learning and memory was observed

# Reference: patent US7071359B1, “Neuropathy improvers containing nitrogenous compounds as the active ingredient” (Teijin Limited, priority 1999, dated 2006)
